According to publication PMC7687180 (Chembiochem, 2020):
Read-outs that look alike come from different tables or passages of the source.

Key:
[1] = target: T1, SdeC (Legionella pneumophila, UniProt Q5ZTK8); assay: biochemical
T1 construct: gene lpg2153

[2] = target: T1, SdeC; assay: biochemical; remark: listed apart in the source

SMILES | IC50 [1] [µM] | IC50 [2] [µM]
NC(=O)c1ccc[n+]([C@@H]2O[C@H](COP(=O)([O-])OP(=O)(O)OC[C@H]3O[C@@H](n4cnc5c(N)ncnc54)[C@H](O)[C@@H]3O)[C@@H](O)[C@H]2O)c1 [NAD^+] | 27.7 ± 1.9 | –
NC(=O)c1cccc([C@@H]2O[C@H](COP(=O)(O)OP(=O)(O)OC[C@H]3O[C@@H](n4cnc5c(N)ncnc54)[C@H](O)[C@@H]3O)[C@@H](O)[C@H]2O)c1 [compound 3, BAD] | – | 38.9
NC(=O)c1ccc[n+]([C@@H]2S[C@H](COP(=O)(O)OP(=O)([O-])OC[C@H]3O[C@@H](n4cnc5c(N)ncnc54)[C@H](O)[C@@H]3O)[C@@H](O)[C@H]2O)c1 [compound 2, S-NAD^+] | – | 27.9
